The target of test [1] is T1, FIPV M^pro (Feline coronavirus, UniProt Q98VG9). Kind of test: FRET-based cleavage assay with purified FIPV Mpro (Ki and IC50 determination). The test is classed as biochemical, FIPV WSU-79/1146. On the procedure:
A fluorescence resonance energy transfer (FRET)–based cleavage assay was performed using a synthetic peptide fluorescent substrate containing the cleavage site of FIPV M^pro [Abz-SVTLQ↓SG-Tyr (NO2)-R] as described previously ([Vuong et al., 2020]; [Vuong et al., 2021]). […] The enzymatic reactions using 1–500 μM of FRET substrate in activity buffer (25 mM Bis-Tris, 1 mM DTT, pH 7.0) were started with the addition of protease. For IC50 determination, 100 nM of FIPV M^pro was incubated with an inhibitor concentration range of 0.25 nM–100 µM in activity buffer. The reaction was started with 40 µM of FRET substrate. The fluorescence signal of the FRET peptide cleavage product was monitored at an emission wavelength of 420 nm with excitation at 320 nm, using a Cytation 5 Imaging Multi-Mode Reader (BioTek) for 7 min at 37°C. The kinetic data were analyzed using computer-fit calculation (Prism 9.0, GraphPad Software). […] The experiments were performed in triplicate.

For another test, the system named is SARS-CoV-2 M^pro. To be noted: read-out: SARS-CoV-2 M^pro IC50; mean ± SEM, n = 3; ref Vuong et al. (2021); cited from earlier work.
The target in the next test is SARS-CoV M^pro. To be noted: ref Arutyunova et al., 2021; cited from earlier work.
For test [2], the target named is T1, FIPV M^pro. More on the design: method as in Kim et al., 2012. To be noted: ref Kim et al., 2012; cited from earlier work.
A further test relates to FIP virus (FIPV). More on the design: method as in Kim et al., 2016; Pedersen et al., 2018. The following applies: experimentally induced and naturally occurring FIP; ref Kim et al., 2016; Pedersen et al., 2018; cited from earlier work.
The target in test [3] is Feline infectious peritonitis virus main protease (FIPV M^pro, FIPV WSU-79/1146) (feline infectious peritonitis virus (FIPV WSU-79/1146)). Kind of test: crystal structure; FIPV M^pro at 10 mg/ml incubated with 5x molar excess of GC373 or GC376 (4°C, 2 h), sitting drop, room temperature; GC376: 2.0 M ammonium sulfate, 0.1 M Bis-Tris pH 5.5; GC373: 0.2 M calcium chloride, 0.1 M MES, 20% PEG 6000, pH 6.0.

Where two headings read alike, the source gives them in different places.

T1 sequence (Q98VG9 2904-3205): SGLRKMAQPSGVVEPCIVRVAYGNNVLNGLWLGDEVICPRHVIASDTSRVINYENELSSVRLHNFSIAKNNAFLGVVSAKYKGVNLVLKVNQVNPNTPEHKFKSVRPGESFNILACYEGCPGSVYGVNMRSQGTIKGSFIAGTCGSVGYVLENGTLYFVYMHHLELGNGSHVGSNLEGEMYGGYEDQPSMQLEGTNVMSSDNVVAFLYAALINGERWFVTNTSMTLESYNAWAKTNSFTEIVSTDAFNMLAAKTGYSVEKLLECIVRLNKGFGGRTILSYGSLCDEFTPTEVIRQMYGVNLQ

Molecule `O=C[C@H](C[C@@H]1CCNC1=O)NC(=O)[C@H](CC1CC1)NC(=O)OCc1ccccc1` [1a] registered a concentration for half-maximal inhibition (IC50) on FIPV M^pro [1] of 100 ± 70 nM. As for `CC(C)C[C@H](NC(=O)OCc1cccc(F)c1)C(=O)N[C@H](C=O)C[C@@H]1CCNC1=O` [1d], the IC50 is 130 ± 40 nM with SARS-CoV-2 M^pro and 70 ± 10 nM against FIPV M^pro [1].

Regarding `CC(C)C[C@H](NC(=O)OCCc1cccc(Cl)c1)C(=O)N[C@H](C=O)C[C@@H]1CCNC1=O` [1e], the IC50 in the test with SARS-CoV-2 M^pro is 150 ± 50 nM; against FIPV M^pro [1] it was 130 ± 20 nM.

In the case of `CC(C)C[C@H](NC(=O)O[C@@H](C)c1ccccc1)C(=O)N[C@H](C=O)C[C@@H]1CCNC1=O` [1g], the figures for the IC50 with SARS-CoV-2 M^pro and on FIPV M^pro [1] were 270 ± 90 nM and 430 ± 90 nM, respectively. With `O=C(N[C@@H](CC1CC1)C(=O)N[C@@H](C[C@@H]1CCNC1=O)C(O)S(=O)(=O)O)OCc1cccc(F)c1` (some centres unmarked) [2c], the IC50 is 70 ± 10 nM in the test with SARS-CoV-2 M^pro and 30 ± 10 nM against FIPV M^pro [1]. Molecule `O=C(N[C@@H](CC1CC1)C(=O)N[C@@H](C[C@@H]1CCNC1=O)C(O)S(=O)(=O)O)OCCc1cccc(Cl)c1` (some centres unmarked) [2d] yielded an IC50 on FIPV M^pro [1] of 50 ± 20 nM. Still for that read-out and setting: next, `COc1cccc2[nH]c(C(=O)N[C@@H](CC3CC3)C(=O)N[C@@H](C[C@@H]3CCNC3=O)C(O)S(=O)(=O)O)cc12` (some centres unmarked) [2e]: 60 ± 20 nM. Turning to `CC(C)CC(NC(=O)OCc1ccccc1)C(=O)NC(C=O)CC1CCNC1=O` (centres unmarked) [GC373], the “Ki against SARS-CoV Mpro (in words)” value on SARS-CoV M^pro was “nanomolar range”. As for `CC(C)CC(NC(=O)OCc1ccccc1)C(=O)NC(CC1CCNC1=O)C(O)S(=O)(=O)O` (centres unmarked) [GC376, reference compound], the IC50 at FIPV M^pro [1] (100 nM FIPV Mpro, 40 µM FRET substrate, 37°C, mean ± SEM, n = 3, read-out: FIPV M^pro IC50) worked out at 130 ± 20 nM. Further, the Ki at FIPV M^pro [1] (read-out: Calculated Ki) was 2.1 nM. At FIPV M^pro [2], the “IC50 against FIPV Mpro (in words)” value was “sub-micromolar”. Moreover, the “Effect on progression of FIP in cats” value in the test on FIP virus (FIPV) was “successful in reversing the progression”. As for “Feline infectious peritonitis virus main protease (FIPV M^pro, FIPV WSU-79/1146) (enzyme)”, the stoichiometry N in test [3] stood at 2.

As usually defined, the IC50 is the concentration at which inhibition is half-maximal. The Ki is the dissociation constant of the complex between target and ligand, obtained from inhibition or displacement. For orientation: stoichiometry N means the number of molecules, sites or subunits per partner or assembly.

These data come from paper PMC8907848 (Frontiers in Chemistry, 2022).
